According to US11478551B2, “Long-acting adrenomedullin derivative” (University of Miyazaki, priority 2015, dated 2022):

Assays:
[1] = test system: spontaneously hypertensive rat (SHR); assay: Effect of suppressing increase in blood pressure in spontaneously hypertensive rat (SHR) fed high-salt diet; format: in vivo; details: 336 μg/100 μL subcutaneous single dose, SHR on high-salt diet (8% NaCl), 9 days after administration
Experimental: Each 8-week-old male SHR (approximately 200 g) was fed with a high-salt diet (8% NaCl). The compound (8) was administered in a form dissolved in physiological saline at the time of feeding with the high-salt diet. 100 μL of physiological saline was subcutaneously administered in a single dose to each male SHR (approximately 200 g) in the same condition as above in a control group.

[2] = Measurement over time of AM concentration in plasma after subcutaneous administration (RIA); format: in vivo; details: 10 nmol/kg subcutaneous single dose, rat
Experimental: 1 day, 7 days and 10 days after the start of the administration, 50 mg of pentobarbital was intraperitoneally administered, and 300 μL of blood was collected each time from the tail vain under anesthesia. Immediately, 300 μg of EDTA-2Na and […] of aprotinin were added to the obtained blood sample, and the mixture was centrifuged under conditions involving 10 minutes and 3000 rpm to obtain plasma. The AM concentration in the plasma of each sample was measured by radioimmunoassay (RIA) (Kitamura K, Ichiki Y, Tanaka M et al., Immunoreactive adrenomedullin in human plasma. FEBS Lett., vol. 341, p. 288-90, 1994).
The compound (37) prepared in experiment III-1 was subcutaneously administered in a single dose of 30 nmol/kg to each rat, and time-dependent change in the concentration in blood of the adrenomedullin derivative was observed. The compound (37) dissolved in physiological saline was subcutaneously administered to each 7- to 8-week-old male Wistar rat (approximately 250 g). 1 day, 2 days, 4 days, 7 days and 9 days after the start of the administration, 50 mg of pentobarbital was intraperitoneally administered, and 300 μL of blood was collected each time from the tail vain under anesthesia. Immediately, 300 μg of EDTA-2Na and […] of aprotinin were added to the obtained blood sample, and the mixture was centrifuged under conditions involving 10 minutes and 3000 rpm to obtain plasma. The AM concentration in the plasma of each sample was measured by RIA.

[3] = test system: adjuvant-induced arthritis models; assay: Adjuvant-induced arthritis model; format: in vivo; details: 1 and 10 nmol/kg subcutaneous, rat
Experimental: The compound (8) was subcutaneously administered to each rat. […] Physiological saline was administered as a vehicle to a control group. The paw volumes and swelling rates of the right and left legs were measured on days 0 (day before the adjuvant administration), 4, 7, 10 and 14 using a paw volume measurement apparatus (MK-550, Muromachi Kikai Co., Ltd.). Inflammation scores on days 0 (day before the adjuvant administration), 4, 7, 10 and 14 were evaluated on the basis of the scores shown in Table 5.

wound models = assay: Wound model; format: in vivo, mouse; details: 1 nmol/kg subcutaneous single dose, BALB/c-nu/nu mice
Experimental: 5-week-old male BALB/c-nu/nu mice (Charles River Laboratories Japan, Inc.) were purchased and acclimatized for 1 week. Then, 5 mg of pentobarbital was intraperitoneally administered to each mouse for anesthesia. The skin was disinfected using ethanol for disinfection. The skin of the back was pulled with fingers with the mouse in the lateral position, and pressed and cut with a round knife for skin biopsy (disposable biopsy punch with plunger system) from one side toward the other side on a disinfected mat for drafting to prepare two defective injuries each having a diameter of 6 mm. […] Physiological saline was administered as a vehicle to a control group. A dressing was applied to cover the back including the wound sites. Change in the wound areas were observed over time.

[4] = test system: TNBS-induced colitis models; assay: 2,4,6-trinitrobenzenesulfonic acid (TNBS)-induced colitis model; format: in vivo; details: 1 nmol/kg subcutaneous, rat
Experimental: 7-week-old male Wistar rats were acclimatized for 1 week. […] Fasting was carried out for 24 hours concurrently with the subcutaneous administration to remove stool from the body. Colitis models were prepared by procedures described below. The concentration of TNBS (Nacalai Tesque, Inc.) was adjusted to 30 mg/500 μL (in a 50% aqueous ethanol solution). 50 mg of pentobarbital was intraperitoneally administered, and a polyethylene catheter was inserted by 8 cm from the anus under anesthesia while slowly rotated, followed by injection of 500 μL of the drug solution (day 1). Then, the inverted state was maintained for 2 minutes. The body weight and the form of diarrhea were evaluated every day. 14 days later, 50 mg of pentobarbital was intraperitoneally administered, and blood collection from the heart and excision of the large intestine were carried out under anesthesia. The length and weight of the excised intestinal tract were measured and compared between the groups. […] In the diagram, (a) depicts the day on which the compound (8) or physiological saline was subcutaneously administered and fasting was started, and (b) depicts the day on which TNBS was administered.

Wistar rat = assay: Blood pressure-lowering effect, single intravenous dose in rat under anesthesia; format: in vivo; details: 1 nmol/kg, single dose into the vein
Experimental: Each compound prepared in experiments I-1 and II-1 or full-length AM was administered in a single dose of 1 nmol/kg into the vein of each rat under anesthesia, and change in the blood pressure of the rat was observed. Each 11 to 14-week-old male Wistar rat was anesthetized by the inhalation of isoflurane. After tracheotomy, inhalational anesthesia was controlled at an isoflurane concentration of 1.5 to 2.5% and a flow rate of 0.6 to 0.8 L/min. The right jugular vein was isolated from the rat, and a catheter tube corresponding to 26 G was inserted thereto. Next, the left carotid artery was isolated from the rat thus treated, and a catheter tube corresponding to 23 G was inserted thereto. From the catheter tube of the right jugular vein, a physiological saline-heparin solution (physiological saline: 100 mL; heparin: 1000 units) was infused at 2.4 mL/hr. […] The catheter inserted in the carotid artery was connected to a pressure transducer. […] In the diagram, the ordinate depicts a difference obtained by subtracting the average blood pressure before the administration of each drug from the average blood pressure at the time of the administration of each drug.

## GL-2-branched CH3O-PEG (60k)-CH2-^αNH-(h.AM (1-52)) [Compound (8)]
[1]
  increase in the blood pressure compared to the control group: suppressed
[2]; 1 day later
  level at time molar at 24 h: ≥ 2.6 nM
[2]; 7 days later
  level at time molar at 24 h: ≥ 0.74 nM
[2]; 10 days later
  level at time molar at 24 h: ≥ 0.28 nM
[3]
  arthritis score (inflammation score) as compared to the vehicle control group: significantly decreased
  paw volume as compared to the vehicle control group: significantly decreased
  swelling rate as compared to the vehicle control group: significantly decreased
Wound models
  reduction in the wound areas compared to the vehicle control group: faster
[4]
  pathological changes of the large intestine (autopsy report): evidently fewer
  weight loss due to the development of colitis: improved
[4]; 14 days later
  decrease in the intestinal tract length of the large intestine compared to the vehicle control group: evidently suppressed
  increase in the weight of the large intestine compared to the vehicle control group: evidently suppressed
Wistar rat
  decrease in the blood pressure immediately after the administration, as compared to compound (2): further suppressed
  rapidly decreased blood pressure immediately after the administration: not observed
